# Where two headings read alike, the source gives them in different places.
# Test system: hairy heel wart lesions on the cows
# [1] = Day 0, prior to first treatment
# [2] = Grading Period 1 (Day 0), one day prior to first treatment
compound,measurement,setting,value
"O=S(=O)([O-])[O-].[Cu+2] [CuSO4, copper sulfate]",Lesion Appearance Score Distribution: number of cows with Grade Score 4 (Dead lesion),[1],1
same,Lesion Pain Score Distribution: number of cows with Grade Score 1 (Minor pain),[1],10
same,Lesion Size Score Distribution: number of cows with Grade Score 1 (Dime Size),[1],6
same,Lesion Size Score Distribution: number of cows with Grade Score 2 (Quarter Size),[1],5
same,Locomotion Score Distribution: number of cows with Grade Score 1 (Stands and walks normal),[1],5
same,Lesion Appearance Score Distribution: number of cows with Grade Score 4 (Dead lesion),Day 5,5
same,Lesion Pain Score Distribution: number of cows with Grade Score 1 (Minor pain),Day 5,6
same,Lesion Size Score Distribution: number of cows with Grade Score 1 (Dime Size),Day 5,4
same,Lesion Size Score Distribution: number of cows with Grade Score 2 (Quarter Size),Day 5,4
same,Locomotion Score Distribution: number of cows with Grade Score 1 (Stands and walks normal),Day 5,3
same,Lesion Appearance Score Distribution: number of cows with Grade Score 4 (Dead lesion),Day 10,6
same,Lesion Pain Score Distribution: number of cows with Grade Score 1 (Minor pain),Day 10,9
same,Lesion Size Score Distribution: number of cows with Grade Score 1 (Dime Size),Day 10,10
same,Lesion Size Score Distribution: number of cows with Grade Score 2 (Quarter Size),Day 10,1
same,Locomotion Score Distribution: number of cows with Grade Score 1 (Stands and walks normal),Day 10,3
same,Lesion Appearance Score Distribution: number of cows with Grade Score 4 (Dead lesion),Day 14,5
same,Lesion Pain Score Distribution: number of cows with Grade Score 1 (Minor pain),Day 14,5
same,Lesion Size Score Distribution: number of cows with Grade Score 1 (Dime Size),Day 14,4
same,Lesion Size Score Distribution: number of cows with Grade Score 2 (Quarter Size),Day 14,6
same,Locomotion Score Distribution: number of cows with Grade Score 1 (Stands and walks normal),Day 14,8
same,Lesion Appearance Score Distribution: number of cows with Grade Score 4 (Dead lesion),Day 19,3
same,Lesion Pain Score Distribution: number of cows with Grade Score 1 (Minor pain),Day 19,5
same,Lesion Size Score Distribution: number of cows with Grade Score 1 (Dime Size),Day 19,8
same,Lesion Size Score Distribution: number of cows with Grade Score 2 (Quarter Size),Day 19,3
same,Locomotion Score Distribution: number of cows with Grade Score 1 (Stands and walks normal),Day 19,8
same,Average lesion color score (scale 0 to 5),[2],1.64
same,Average lesion pain score (scale 0 to 2),[2],1.09
same,Average locomotion score (scale 1-5),[2],1.82
same,Average lesion color score (scale 0 to 5),Grading Period 2 (Day 5),2.20
same,Average lesion pain score (scale 0 to 2),Grading Period 2 (Day 5),0.60
same,Average lesion size score (scale 0 to 3),Grading Period 2 (Day 5),1.80
same,Average locomotion score (scale 1-5),Grading Period 2 (Day 5),1.90
same,Average lesion color score (scale 0 to 5),Grading Period 3 (Day 10),2.45
same,Average lesion pain score (scale 0 to 2),Grading Period 3 (Day 10),1.00
same,Average lesion size score (scale 0 to 3),Grading Period 3 (Day 10),1.09
same,Average locomotion score (scale 1-5),Grading Period 3 (Day 10),1.82
same,Average lesion color score (scale 0 to 5),Grading Period 4 (Day 14),3.10
same,Average lesion pain score (scale 0 to 2),Grading Period 4 (Day 14),0.50
same,Average lesion size score (scale 0 to 3),Grading Period 4 (Day 14),1.60
same,Average locomotion score (scale 1-5),Grading Period 4 (Day 14),1.20
same,Average lesion pain score (scale 0 to 2),Grading Period 5 (Day 19),0.45
same,Average lesion size score (scale 0 to 3),Grading Period 5 (Day 19),1.27
same,Average locomotion score (scale 1-5),Grading Period 5 (Day 19),1.55

# Source: patent publication US8703104B2, “Use of metal astringents for the treatment of hairy heel warts” (Ecolab USA Inc, priority 2007, dated 2014)
